# Test results: US10512673B2, “Use of peptide-based inhibitors of the stat3-IL10 pathway for treating bacterial infection and granulomatous disease” (The United States of America, as Represented by the …, priority 2015, dated 2019)
# “Also recorded” adds a separate entry of the source. Where no end group is shown, it is not given here. [ ]: non-standard residue; d: D form. The star is where a group is joined. Palmitoyl = CCCCCCCCCCCCCCCC(=O)*
# Tests used:
# [1] = system: Mycobacterium tuberculosis (Erdman strain); conditions: in vivo
# stat3 = system: stat3; design: species or system C57BL/6 mice; conditions: mouse, in vivo
# Il-10 [2] = system: Il-10; design: species or system C57BL/6 mice; conditions: mouse, in vivo
# pSTAT3 (pY705) = experiment: ELISA for pSTAT3 in lung homogenates; type: in vivo, C57BL/6 mice; conditions: after two weeks of treatment (100 μg/dose), vs untreated infected mice
# Description: Lung homogenates were screened for pSTAT3 (pY705 (tyrosine 705)) by ELISA following manufacturer's recommendations (Life Technologies). Briefly, the lung homogenates were re-suspended in the cell extraction buffer and incubated during 30 minutes on ice with intermittent vortexing followed by pelleting of the cell debris. Supernatants from each sample were collected and screened for their content of STAT3 (pY705). Standards were prepared using purified recombinant phosphorylated STAT3 protein. Thereafter, 100 μl of standards and diluted samples or control aliquots were distributed into microtiter wells and were incubated in the wells pre-coated with anti-pSTAT3 antibody. The reactions were developed using the detection anti-pSTAT3 antibody followed by 30 minutes incubation at RT with anti-rabbit IgG HRP. The reactions were visualized by incubation with a chromogenic substrate of HRP during 30 minutes at room temperature. The reactions were stopped with 100 μl of stop solution added to each well. Absorbance for each well was read at 450 nm.
# Il-10 [3] = experiment: Cytometric bead array for IL-10 in lung homogenates; design: species or system C57BL/6 mice; conditions: mouse, in vivo
# nos2 [4] = experiment: RT-PCR of nos2 transcript in lungs; type: in vivo, C57BL/6 mice; conditions: for mRNA nos2 expression (in words): mouse, in vivo
# arg1 [5] = experiment: RT-PCR of arg1 transcript in lungs; type: in vivo, C57BL/6 mice; conditions: for mRNA arg1 expression (in words): mouse, in vivo
# nos2 [6] = experiment: NOS2 activity in lung homogenates (Griess reaction); type: in vivo, C57BL/6 mice; conditions: 100 μg/dose, vs untreated infected mice
# Description: (§1) The quantification of end effector molecules and enzymes involved in the host antimicrobial activity in the lungs of mice were performed using lung homogenates obtained as indicated above. Lung homogenate supernatants were used in a Griess reaction (G 7921, Molecular probes, Invitrogen, Eugene, Oreg.), Arginase assay (Bioassay Systems, DARG-200), NADPH (Bioassay Systems, ECNP-100), and lysozyme (Molecular Probes E-22013).
# For the Griess reaction, reagents were acclimated at room temperature for 20 min prior to the assay. Thereafter, the samples were centrifuged at 1200 rpm for 2 min and the Griess reaction was performed following the manufacturer's instructions. Briefly, samples and prepared standards were diluted following the manufacturer's instructions with distilled sterile water in a 96 well plate. 20 μl of Griess reaction were added to each reaction well. Samples and standards were incubated for 30 minutes in the dark. Thereafter, samples were read using a Biotech Synergy 2 Multi-Mode Micro Plate Reader [U5] spectrophotometer at 546 nm.
# arg1 [7] = experiment: Arginase activity in lung homogenates; type: in vivo, C57BL/6 mice; conditions: 100 μg/dose, vs untreated infected mice
# Description: as §1
# The level of arginase activity in each lung homogenate was performed using the Quanti-Chrom Arginase Assay Kit (Bio Assay Systems, Hayward, Calif.). Briefly, protein concentration was normalized to 100 μg/ml. As a control, an aliquot of normalized protein was heat-inactivated at 90° C. for 10 min. 40 μl of untreated or heat-inactivated sample was incubated at 37° C. for 60 min with 10 μl of 5× reagent. Thereafter, the reaction was processed as recommended by the manufacturer and analyzed in a plate reader (Bio-Rad, Hercules, Calif.) at an absorbance of 430 nm. The absorbance of the heat-inactivated sample was subtracted from the respective untreated sample and then compared to urea standards. Activity of the arginase was reported in mU/mg of protein.
# NADPH = NADPH assay in lung homogenates; type: in vivo, C57BL/6 mice; conditions: 100 μg/dose, vs untreated infected mice
# Description: as §1
# For the NADPH assay, each lung homogenate was mixed in a 1.5 mL Eppendorf tube with 100 μL NADPH extraction buffer for NADPH determination. Extracts then were heated at 60° C. for 5 min and then 20 μl assay buffer and 100 μl of the opposite extraction buffer were added to neutralize the extracts. Samples were briefly vortexed and centrifuged at 13,000 rpm for 5 min. The resulting supernatant was used for NADPH assays. 40 μl of standards were then transferred into wells of a clear bottom 96-well plate. For each well of the reaction, 80 μL working reagent were added per well quickly. Optical density for time “zero” (OD0) optical density after 30 min incubation (OD30) at room temperature were read at 565 nm (520-600 nm).
# lysozyme = experiment: Lysozyme assay in lung homogenates; type: in vivo, C57BL/6 mice; conditions: 100 μg/dose, vs untreated infected mice
# Description: as §1
# The Lysozyme assay was performed as per manufacturer's instructions. Briefly, experimental samples were first diluted in 1× reaction buffer. A volume of 50 μl was used for each reaction. Then, 50 μl of the 50 μg/ml DQ lysozyme substrate were added to each microplate well containing the experimental or the standard curve samples. The reaction mix was then incubated at 37° C. for 30 min protected from light. The fluorescence in each of the samples was measured at absorption maxima at ˜494 nm and fluorescence emission maxima at ˜518 nm.
# TNFα = experiment: Cytometric bead array for TNFα in lung homogenates; type: in vivo, C57BL/6 mice; conditions: CBA, 100 μg/dose, vs control mice
# IFNγ = experiment: Cytometric bead array for IFNγ in lung homogenates; type: in vivo, C57BL/6 mice; conditions: CBA, 100 μg/dose, vs control mice
# IL-12p40 = experiment: Cytometric bead array for IL-12p40 in lung homogenates; type: in vivo, C57BL/6 mice; conditions: CBA, 100 μg/dose, vs control mice
# bcl-2 [8] = experiment: qRT-PCR of bcl-2 transcript in lungs; type: in vivo, C57BL/6 mice; conditions: 100 μg/dose
# Description: (§2) The upper right lobe of the lungs from each mouse were homogenized in Trizol (Invitrogen) using Next Advance bullet blender (Averill Park, N.Y.) and frozen at −80° C. immediately. RNA was extracted following the manufacturer's protocol. Trizol DNA was digested with RQ1 RNase-free DNase (Promega, Madison, Wis.) and RNA was re-isolated using Trizol. Finally, the concentration of RNA in each sample was measured by spectrophotometry and the RNA was reverse transcribed with M-Mulv (New England Bio Labs, Ipswich, Mass.) and random hexamers (Roche, Basel, Switzerland).
# (§3) When lung homogenates from each mouse were used to determine the levels of expression of Bcl-2 and Atg-5 protein using ELISA, the results were similar to those obtained by qRT-PCR.
# bax = experiment: qRT-PCR of bax transcript in lungs; type: in vivo, C57BL/6 mice; conditions: 100 μg/dose
# Description: as §2, §3
# atg5 = experiment: qRT-PCR of atg5 transcript in lungs; type: in vivo, C57BL/6 mice; conditions: 100 μg/dose
# Description: as §2, §3
# beclin-1 = experiment: qRT-PCR of beclin-1 transcript in lungs; type: in vivo, C57BL/6 mice; conditions: 100 μg/dose
# Description: as §2, §3
# IL-6 = experiment: Cytometric bead array for IL-6 in lung homogenates; type: in vivo, C57BL/6 mice; conditions: CBA, 100 μg/dose, vs control mice
# [9] = system: granuloma lesions in the lungs; experiment: Lung histopathology (H&E); design: species or system C57BL/6 mice; conditions: mouse, in vivo
# pSTAT3 = experiment: Immunohistochemistry for pSTAT3 in lung tissue sections; design: species or system C57BL/6 mice; conditions: mouse, in vivo
# [10] = system: Mycobacterium tuberculosis (Erdman strain); conditions: in vivo; remark: listed apart in the source
# bcl-2 [11] = experiment: ELISA for Bcl-2 protein in lung homogenates; type: in vivo, C57BL/6 mice; conditions: 100 μg/dose, vs untreated infected mice
# Source text: as §3
# [12] = mouse, in vivo
# [13] = RT-PCR, lungs, 100 μg/dose, vs control mice
substance,measurement,setting,value
Ac-EETQLSPKTSGFGSDTSGHLK-E-Pal (Ac-[dE][dE][dT][dQ][dL][dS][dP][dK][dT][dS]G[dF]G[dS][dD][dT][dS]G[dH][dL][dK](Palmitoyl); not fully specified; also: name K-E-Pal / C-terminal Glu-palmitoyl: Glu between Lys and palmitoyl?) [IL10R1-14],change of pulmonary CFU (in words),[1],slight increase; also recorded: only the group of mice receiving the peptide inhibitor ST3-H2A2 had reduced the pulmonary CFU
same,pulmonary expression of stat3 transcript,stat3,no significant changes
same,pulmonary expression of il-10 transcript,Il-10 [2],no significant changes
same,level of pSTAT3 in lung homogenates,pSTAT3 (pY705),no significant changes
same,level of IL-10 in lung homogenates,Il-10 [3],no significant changes
same,increase in nos2 transcript expression,nos2 [4]; [13],2 fold
same,increase in arg1 transcript expression,arg1 [5]; [13],10 fold
same,NOS2 activity (concentration of NO),nos2 [6],lower or no increase
same,Arg1 activity,arg1 [7],increased
same,NADPH activity (pyridine nucleotide),NADPH,lower or no increase
same,lysozyme activity (DQ substrate),lysozyme,lower or no increase
same,level of TNFα in the lungs,TNFα,reduced
same,level of IFNγ expression in the lungs,IFNγ,increased and up
same,expression level of IL-12p40 in the lungs,IL-12p40,down
same,expression of bcl-2 transcript (in words),bcl-2 [8],reduced expression
same,expression of bax transcript (in words),bax,reduced expression
same,expression of atg5 transcript (in words),atg5,increased expression
same,expression of beclin-1 transcript (in words),beclin-1,reduced expression
ε-Pal-KLVTLPLISSLQSSE-NH2 (K(Palmitoyl)LVTLPLISSLQSSE-NH2; N-terminus assumed; SMILES CCCCCCCCCCCCCCCC(=O)NCCCC[C@H](N)C(=O)N[C@@H](CC(C)C)C(=O)N[C@H](C(=O)N[C@H](C(=O)N[C@@H](CC(C)C)C(=O)N1CCC[C@H]1C(=O)N[C@@H](CC(C)C)C(=O)N[C@H](C(=O)N[C@@H](CO)C(=O)N[C@@H](CO)C(=O)N[C@@H](CC(C)C)C(=O)N[C@@H](CCC(N)=O)C(=O)N[C@@H](CO)C(=O)N[C@@H](CO)C(=O)N[C@@H](CCC(=O)O)C(N)=O)[C@@H](C)CC)[C@@H](C)O)C(C)C) [IL10R1-7],change of pulmonary CFU (in words),[1],only the group of mice receiving the peptide inhibitor ST3-H2A2 had reduced the pulmonary CFU
same,reduction of pulmonary bacterial load,[1],0.6
same,pulmonary expression of stat3 transcript,stat3,lower levels
same,pulmonary expression of il-10 transcript,Il-10 [2],lower levels
same,level of pSTAT3 in lung homogenates,pSTAT3 (pY705),lower levels
same,level of IL-10 in lung homogenates,Il-10 [3],lower levels
same,mRNA nos2 expression (in words),nos2 [4],reduction in transcript expression for nos2 and arg1 but not significantly for nos2
same,mRNA arg1 expression (in words),arg1 [5],reduction
same,NOS2 activity (concentration of NO),nos2 [6],significantly elevated
same,Arg1 activity,arg1 [7],reduced or not changed
same,NADPH activity (pyridine nucleotide),NADPH,significantly elevated
same,lysozyme activity (DQ substrate),lysozyme,significantly elevated
same,level of TNFα in the lungs,TNFα,reduced and down
same,level of IFNγ expression in the lungs,IFNγ,decreased and down
same,expression level of IL-12p40 in the lungs,IL-12p40,decreased and up
same,expression level of IL-6 in the lungs,IL-6,decreased
same,histopathology of H&E stained lung sections,[9],increased numbers of clusters and highly packed lymphocytes
same,pSTAT3 staining by IHC in lung tissue sections,pSTAT3,reduced levels of pSTAT3 staining in the center of the granuloma lesions
same,expression of bcl-2 transcript (in words),bcl-2 [8],reduced expression
same,expression of bax transcript (in words),bax,reduced expression
same,expression of atg5 transcript (in words),atg5,increased expression
same,expression of beclin-1 transcript (in words),beclin-1,reduced expression
LDTRYLEQLHKLY [ST3-H2A2],reduction of pulmonary CFU,[1],0.6 log10
same,reduction of pulmonary bacterial load,[1],1.7 log10 CFU
same,reduction of splenic bacilli load,[10],0.9 log10CFU
same,pulmonary expression of stat3 transcript,stat3,no significant changes
same,pulmonary expression of il-10 transcript,Il-10 [2],increased levels of expression
same,level of pSTAT3 in lung homogenates,pSTAT3 (pY705),little change
same,level of IL-10 in lung homogenates,Il-10 [3],little change
same,mRNA nos2 expression (in words),nos2 [4],increased more significantly
same,mRNA arg1 expression (in words),arg1 [5],decreased expression
same,NOS2 activity (concentration of NO),nos2 [6],significantly elevated
same,Arg1 activity,arg1 [7],reduced or not changed
same,NADPH activity (pyridine nucleotide),NADPH,significantly elevated
same,lysozyme activity (DQ substrate),lysozyme,significantly elevated
same,level of TNFα in the lungs,TNFα,reduced
same,level of IFNγ expression in the lungs,IFNγ,decreased and down
same,expression level of IL-12p40 in the lungs,IL-12p40,increased and up
same,expression level of IL-6 in the lungs,IL-6,increased
same,histopathology of H&E stained lung sections,[9],increased numbers of clusters and highly packed lymphocytes
same,pSTAT3 staining by IHC in lung tissue sections,pSTAT3,reduced levels of pSTAT3 staining in the center of the granuloma lesions
same,increase in expression of bcl-2 transcript,bcl-2 [8],> 3 fold
same,increase in expression of bax transcript,bax,> 3 fold
same,increase in expression of atg5 transcript,atg5,> 3 fold
same,increase in expression of beclin-1 transcript,beclin-1,> 3 fold
same,level of Bcl-2 protein in lung homogenates,bcl-2 [11],significantly increased
same,adverse effects during treatment (body weight),[12],mild weight loss
